# Test results: article PMC12486805, “Preclinical evaluation of tridecaptin M: in vitro and in vivo efficacy against colistin-resistant Gram-negative bacterial pathogens and pharmacokinetics” (Antimicrobial Agents and Chemotherapy, 2025)
# Where two headings read alike, the source gives them in different places. Where a SMILES comes first, the peptide text is derived from it. [ ]: non-standard residue; d: D form. The star is where a group is joined. d(aIle) = CC[C@H](C)[C@@H](N)C(=O)O; X1 = CC[C@H](C)CCCCC(=O)*; dDab = NCC[C@@H](N)C(=O)O; Dab = NCC[C@H](N)C(=O)O
# Legend:
# [1] = in vitro; settings: human, microsomes, pH 7.4
# Protocol: (§1) For without cofactors, 20 µL of PBS was added instead of pre-incubated cofactors. […] At each specified time, a 100 µL sample was taken, processed through a sample extraction procedure, and submitted for LC-MS/MS analysis ([35]). Half-life (t1/2) of test/control items was determined using the following equation
# (§2) where, elimination rate constant (k) = −(slope of linear regression curve).
# [2] = rat liver microsomes
# Protocol: as §1, §2
# [3] = 14-day repeat dose toxicity in mice; settings: 15 mg/kg/day in two s.c. doses, 14 days
# Protocol: Organs were fixed in 10% formalin for histopathology, and the serum was centrifuged from whole blood. The blood was left undisturbed for 20 min and centrifuged at 1,000 × g for 10 min to isolate serum for biochemical tests of the kidney and liver toxicity evaluation ([22]).
# [4] = system: K. pneumoniae ATCC 700603; settings: ATCC 700603, 48 h
# Protocol: LB, TSB, TSB + 1% Glucose, M63, and the M63 media were selected for biofilm experiments ([20], [30], [31]). With some modifications from previous methods, employing CV staining, K. pneumoniae cells were grown in M63 salt media at 37°C, 200 rpm shaking conditions overnight. […] Following incubation, the media and planktonic cells were gently removed, and the wells with adhered biofilm were washed three times with 0.9% saline. […] The biofilm inhibition was calculated as the percentage of biofilm remaining after treatment using the formula:
# Biofilms remaining (%)=OD595 (sample)/OD595 (control)×100%
# [5] = mouse liver microsomes
# Protocol: as §1, §2
# [6] = in vivo; settings: male, Sprague-Dawley, rat, plasma, 5 mg/kg; for Cmax / half-life: 5 mg/kg b.w.
# Protocol: The samples were then centrifuged at 4,000 rpm for 10 min at 4°C to separate plasma, which was stored at −80°C until analysis.
# [7] = target: CYP2C9 (Homo sapiens, UniProt P11712); test: CYP inhibition assay, recombinant isoform, fluorescence; type: biochemical
# Chain of CYP2C9 (P11712 whole entry, canonical isoform): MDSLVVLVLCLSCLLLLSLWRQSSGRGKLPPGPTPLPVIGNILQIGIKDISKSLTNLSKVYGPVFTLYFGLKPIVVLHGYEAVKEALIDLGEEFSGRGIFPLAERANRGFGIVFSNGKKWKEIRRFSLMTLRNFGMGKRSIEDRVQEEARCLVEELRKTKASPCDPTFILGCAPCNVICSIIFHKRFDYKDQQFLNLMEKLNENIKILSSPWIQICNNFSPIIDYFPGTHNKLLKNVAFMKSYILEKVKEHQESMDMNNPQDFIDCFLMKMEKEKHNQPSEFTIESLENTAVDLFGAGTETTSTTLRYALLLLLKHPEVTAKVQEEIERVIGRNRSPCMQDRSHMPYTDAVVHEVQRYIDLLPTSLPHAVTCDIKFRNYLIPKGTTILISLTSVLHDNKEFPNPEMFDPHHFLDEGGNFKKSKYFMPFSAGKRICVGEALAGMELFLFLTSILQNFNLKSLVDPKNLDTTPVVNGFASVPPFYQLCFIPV
# Protocol: The CYP inhibition assay was performed for test/control inhibitor items in duplicates using a 96-well fluorescence plate. An example of the preparation of CYP inhibition is given below in Table 8.
# The plate with CYP master premix with test/control was incubated to allow the test/control samples to interact with CYP enzyme for 10 ± 1 min at 25°C under shaking conditions (400 rpm) using Thermomixer. The assay was initiated by adding 10 µL of a substrate and NADP^+ mixture to all wells, including a vehicle control and an assay blank. The plate was then incubated at 25°C for 25 min with shaking at 400 rpm using a thermomixer. After incubation, the reaction was quenched by adding 50 µL of stop reagent (0.5 M Tris base) to each well. Fluorescence was measured using a microplate reader at excitation/emission wavelengths of 415/460 nm, respectively ([37]).
smiles,measurement,setting,value
"CC[C@H](C)CCCCC(=O)NCC(=O)N[C@H](CCN)C(=O)NCC(=O)N[C@H](CO)C(=O)N[C@H](Cc1c[nH]c2ccccc12)C(=O)N[C@@H](CO)C(=O)N[C@@H](CCN)C(=O)N[C@H](CCN)C(=O)N[C@H](C(=O)N[C@@H](CCC(=O)O)C(=O)N[C@H](C(=O)N[C@@H](C(=O)N[C@@H](CO)C(=O)O)[C@@H](C)CC)[C@@H](C)CC)[C@@H](C)CC [Tridecaptin M, tridecaptin M] (X1-G[dDab]G[dS][dW]S[Dab][dDab]IEI[d(aIle)]S-OH)",half-life,[1],1.31 h
same,microsomal CLint,[1],17.6 µL/min/mg
same,remaining at 0.25 h,[1],58%
same,remaining at 0.5 h,[1],50.2%
same,remaining at 1 h,[1],53.7%
same,remaining at 2 h,[1],48.4%
same,CL,[2],<11.55 µL/min/mg
same,ALP (serum),[3],77.33 ± 27.47 U/L
same,Albumin (serum),[3],2.60 ± 0.47 g/dL
same,BBilirubin (serum),[3],0.31 ± 0.06 mg/dL
same,BUN (serum),[3],35.33 ± 11.43 mg%
same,Calcium (serum),[3],7.76 ± 2.19 mg%
same,Creatinine (serum),[3],0.41 ± 0.026 mg%
same,Globulin (serum),[3],3.53 ± 0.83 g/dL
same,Phosphorous (serum),[3],7.36 ± 1.27 mg%
same,Proteins (serum),[3],6.13 ± 1.06 g/dL
same,SGOT (serum),[3],657.33 ± 141.06 Units/L
same,SGPT (serum),[3],103.67 ± 40.70 Units/L
same,Uric acid (serum),[3],4.6 ± 1.89 mg%
same,histopathological analysis of liver and kidneys,[3],no signs of toxicity
same,% Biofilm remaining (biofilm inhibition),[4]; 1,29.6%
same,% Biofilm remaining (biofilm inhibition),[4]; 2,7.0%
same,% Biofilm remaining (biofilm inhibition),[4]; 5,0.5%
same,CL,[5],<11.55 µL/min/mg
same,AUC(0-t),[6]; iv,94600 ± 45000 ng·h/mL
same,MRT last,[6]; iv,2.69 ± 1.02 h
same,Vd,[6]; iv,0.16 ± 0.04 L/kg
same,clearance,[6]; iv,1 ± 0.33 mL/min/kg
same,Cmax,[6]; iv,38500 ng/mL
same,half-life,"[6]; iv, T1/2, intravenous",3.65 ± 0.56 h
same,AUC(0-t),[6]; sc,14000 ± 2090 ng·h/mL
same,MRT last,[6]; sc,8.81 ± 2.1 h
same,Cmax,"[6]; sc, subcutaneous",9150 ± 1700 ng/mL
same,half-life,"[6]; sc, T1/2, subcutaneous",8.81 h
same,IC50,[7],> 30 µM
same,"inhibition at 25 min, 0.01 µM",[7]; human,< 0%
same,"inhibition at 25 min, 0.03 µM",[7]; human,0.93%
same,"inhibition at 25 min, 0.1 µM",[7]; human,< 0%
same,"inhibition at 25 min, 0.3 µM",[7]; human,< 0%
same,"inhibition at 25 min, 1 µM",[7]; human,0.05%
same,"inhibition at 25 min, 3 µM",[7]; human,< 0%
same,"inhibition at 25 min, 10 µM",[7]; human,0.82%
same,"inhibition at 25 min, 30 µM",[7]; human,25.6%
